Experimental data taken from US9505768B2, “Compositions and methods for modulating TLR4” (The Regents of the University of California, priority 2012, dated 2016).
Entries after “also recorded” stand apart in the source; their conditions may differ. Read-outs that look alike come from different tables or passages of the source.

Experiments:
[1] = target: T1, mouse TLR4 (Mus musculus, UniProt Q9JHF9+Q9QUK6); experiment: Murine TLR4 HEK Blue NFκB/SEAP reporter assay; format: cell-based; conditions: for mouse TLR4, area under curve (AUC) values normalized to Cmpd 1: mTLR4 HEK transfectoma, 312 nM to 10 μM, Cmpd 1 set at 100
T1 construct: host or cells: HEK293 (HEK Blue) cells with NFκB/SEAP reporter
T1 sequence (Q9QUK6 26-835): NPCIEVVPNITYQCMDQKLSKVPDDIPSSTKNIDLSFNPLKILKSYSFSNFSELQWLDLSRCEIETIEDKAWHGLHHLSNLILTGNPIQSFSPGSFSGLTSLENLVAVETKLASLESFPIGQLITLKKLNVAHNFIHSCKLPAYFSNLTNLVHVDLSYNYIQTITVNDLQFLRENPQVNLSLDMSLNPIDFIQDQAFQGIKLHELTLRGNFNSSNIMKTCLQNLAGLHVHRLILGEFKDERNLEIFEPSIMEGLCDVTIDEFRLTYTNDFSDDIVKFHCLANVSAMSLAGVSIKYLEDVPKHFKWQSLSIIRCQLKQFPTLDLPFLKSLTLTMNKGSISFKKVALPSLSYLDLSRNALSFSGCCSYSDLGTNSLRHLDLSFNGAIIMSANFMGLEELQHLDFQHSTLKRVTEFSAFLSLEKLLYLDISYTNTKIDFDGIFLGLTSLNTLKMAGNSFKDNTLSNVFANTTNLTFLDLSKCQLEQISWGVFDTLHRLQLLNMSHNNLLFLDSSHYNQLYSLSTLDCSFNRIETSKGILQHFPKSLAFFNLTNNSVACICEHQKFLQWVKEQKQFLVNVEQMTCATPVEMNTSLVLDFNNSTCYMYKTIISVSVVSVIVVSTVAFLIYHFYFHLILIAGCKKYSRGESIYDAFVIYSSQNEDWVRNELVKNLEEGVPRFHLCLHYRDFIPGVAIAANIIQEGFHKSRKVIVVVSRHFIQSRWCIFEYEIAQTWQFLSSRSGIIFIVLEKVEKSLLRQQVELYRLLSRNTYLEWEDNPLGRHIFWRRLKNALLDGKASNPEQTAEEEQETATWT
T1 sequence (Q9JHF9 19-160): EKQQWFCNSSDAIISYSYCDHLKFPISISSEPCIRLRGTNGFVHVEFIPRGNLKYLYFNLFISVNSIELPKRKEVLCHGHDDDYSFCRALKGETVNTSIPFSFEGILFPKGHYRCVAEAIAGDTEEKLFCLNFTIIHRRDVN
Method: (§1) The above assays were utilized to compare the derivatives of the lead pyrimidoindole for their ability to activate mouse and human TLR4. […] Each cytokine induction curve was first converted to a percent activity curve, and then the AUC of the percent activity curve was calculated. The process of converting to a percent activity curve allowed subtracting background and adjusting for plate-to-plate variation.
(§2) The culture supernatants were harvested after a 20-24 h incubation period. SEAP activity in the supernatants was determined by a colorimetric assay, using either the SEAPorter Assay Kit (Imgenex), with absorbance read at 405 nm, or QuantiBlue (Invivogen), with absorbance read at 630 nm.

[2] = system: mouse bone marrow derived dendritic cells (mBMDC); experiment: IP-10 induction in mBMDC (ELISA), surrogate marker of type I IFN; format: cell-based; conditions: relative to Cmpd 1
Method: In addition to the production of inflammatory cytokines (IL-6, IL-12, TNFα, etc.) mediated by NFκB activation, TLR4 signaling can result in the production of type I interferons, a feature that is not only important for activation of dendritic cells leading to good adjuvant activity, but would also be important for rapid defense against a variety of pathogens, particularly viruses. […] To determine the relative ability of all compounds to induce the production of type 1 IFN, each was evaluated in mouse bone marrow derived dendritic cells as shown in Tables 1-3.
(§3) BMDC were prepared from C57BL/6 mice as described. See e.g., Wu, C. […] BMDC (10^5 cells per well) were plated in 96-well plates in 200 μL of complete RPMI1640 supplemented with 10% fetal calf serum (FCS; Sigma Aldrich), 100 U/mL penicillin, and 100 μg/mL streptomycin (Invitrogen). […] After 18 h incubation, the cell culture supernatants were collected. LPS (purified LPS, Invivogen, San Diego, Calif.) or MPLA (1 μg/mL synthetic MPLA, Invivogen, San Diego, Calif.) were used as positive controls. […] The AUC was calculated from BMDC dose-response curves using Prism 5 (GraphPad, San Diego). Each cytokine induction curve was first converted to a percent activity curve, and then the AUC of the percent activity curve was calculated. The process of converting to a percent activity curve allowed subtracting background and adjusting for plate-to-plate variation.
In addition, the levels of IP-10, a surrogate marker of type I IFN, in the supernatants were determined by ELISA (R&D Systems, Minneapolis, Minn.).

[3] = system: mouse bone marrow derived dendritic cells (mBMDC); experiment: IL-6 induction in mouse bone marrow derived dendritic cells (ELISA); format: cell-based; conditions: relative to Cmpd 1 / within series
Method: as §1, §3

[4] = target: T2, human TLR4 (Homo sapiens, UniProt O00206+Q9Y6Y9); experiment: Human TLR4 HEK Blue NFκB/SEAP reporter assay; format: cell-based; conditions: for human TLR4, values normalized to Cmpd 1: hTLR4 HEK293 transfectoma, all compounds tested at 10 μM, Cmpd 1 set at 100
T2 construct: host or cells: HEK293 (HEK Blue) cells with NFκB/SEAP reporter
T2 sequence (O00206 24-839): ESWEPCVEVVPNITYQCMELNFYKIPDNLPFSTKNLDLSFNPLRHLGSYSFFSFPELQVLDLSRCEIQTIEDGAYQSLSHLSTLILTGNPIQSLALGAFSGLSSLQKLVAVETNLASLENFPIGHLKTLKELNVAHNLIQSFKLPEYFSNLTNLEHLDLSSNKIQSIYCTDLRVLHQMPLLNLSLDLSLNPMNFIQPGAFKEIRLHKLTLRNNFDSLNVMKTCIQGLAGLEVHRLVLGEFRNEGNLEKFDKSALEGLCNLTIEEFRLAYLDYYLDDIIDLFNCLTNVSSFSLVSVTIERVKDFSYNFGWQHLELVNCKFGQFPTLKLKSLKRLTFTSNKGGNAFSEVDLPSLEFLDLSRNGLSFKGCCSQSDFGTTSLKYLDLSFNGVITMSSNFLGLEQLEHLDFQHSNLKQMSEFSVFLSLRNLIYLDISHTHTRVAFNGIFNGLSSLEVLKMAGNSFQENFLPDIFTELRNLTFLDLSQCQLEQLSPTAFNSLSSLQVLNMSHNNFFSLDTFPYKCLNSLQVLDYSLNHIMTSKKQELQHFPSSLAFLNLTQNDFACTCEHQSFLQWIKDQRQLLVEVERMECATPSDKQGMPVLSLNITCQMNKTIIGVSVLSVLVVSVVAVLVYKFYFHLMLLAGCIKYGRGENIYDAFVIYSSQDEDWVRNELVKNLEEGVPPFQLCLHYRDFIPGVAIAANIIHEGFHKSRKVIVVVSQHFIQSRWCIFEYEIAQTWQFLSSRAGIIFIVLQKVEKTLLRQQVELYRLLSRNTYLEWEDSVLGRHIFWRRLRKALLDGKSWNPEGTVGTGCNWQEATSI
T2 sequence (Q9Y6Y9 19-160): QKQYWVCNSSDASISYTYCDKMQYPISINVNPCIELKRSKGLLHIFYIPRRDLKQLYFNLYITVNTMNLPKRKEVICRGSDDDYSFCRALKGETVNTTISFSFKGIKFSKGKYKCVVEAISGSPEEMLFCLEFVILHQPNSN
Method: as §1, §2

[5] = system: C57BL/6 mice
[6] = system: mouse bone marrow derived dendritic cells (mBMDC); experiment: IP-10 induction in mBMDC (ELISA), surrogate marker of type I IFN; format: cell-based; conditions: 5 μM overnight, vs C57BL/6 WT
[7] = system: C57BL/6 mice; experiment: Protection from LPS/galactosamine-induced lethal liver injury; format: in vivo, mouse; conditions: for Survival: i.p. pretreatment (500 nmol Cmpd, 40 μg MPLA), next day LPS 0.2 μg + galactosamine 12 mg per animal, survivors/treated
Method: FIGS. 11A-11B depict that administration of Cmpd 42 and Cmpd 33 protects hosts from LPS-induced lethal liver injury. FIG. 11A: Schematic showing that C57BL/6 mice were intraperitoneously injected with 500 nmol Cmpd. 42 (n=11) or Cmpd 33 (n=11). 40 μg MPLA (n=9) and vehicle (n=9) were used as positive and negative controls, respectively. Next day, mice were challenged with LPS (0.2 μg/animal) and galactosamine (12 mg/animal). FIG. 11B: Histogram showing results of sera collected 1.5 h post challenge and measured for TNFα. *:p<0.05 compared to vehicle treated mice.
Lipopolysaccharide (LPS), a TLR4 ligand, causes severe lethal liver injury when administered with galactosamine. Pretreatment of mice with MPLA is known to improve the survival in this model. To study whether Cmpd 42 and Cmpd 33 are able to act as immunomodulatory agents similar to MPLA, the mice were treated with Cmpd 42 or Cmpd 33 and challenged with LPS/galatosamine the next day, as depicted in FIG. 11A. Over 80% of Cmpd 42 and 100% of Cmpd 33-treated mice survived.

[8] = system: mouse bone marrow derived dendritic cells (mBMDC); experiment: IL-6 induction in mouse bone marrow derived dendritic cells (ELISA); format: cell-based; conditions: 5 μM overnight, vs C57BL/6 WT
[9] = system: mBMDC; experiment: MTT viability assay in mBMDC; conditions: 18 h, concentrations up to 10 μM
Method: Cytotoxicity of the compounds was evaluated by MTT assay as a measure of viability. mBMDC (10^5/well) were incubated with graded concentrations of the compounds for 18 h and compared with vehicle (0.5% DMSO) and MPLA (1 μg/mL). […] (FIG. 6B) The cells were lysed after the overnight incubation with MTT reagents, and absorbance at 570 nm was measured, subtracting the reference absorbance at 650 nm. Data shown are mean±SEM of triplicates and are representative of two independent experiments showing similar results.

Molecule	mouse TLR4, area under curve (AUC) values normalized to Cmpd 1 [1]	IP-10 production in mBMDC (in words) [2]	IL-6 activity in mBMDC (in words) [3]	human TLR4, values normalized to Cmpd 1 [4]	other results
O=C(CSc1nc2c([nH]c3ccccc32)c(=O)n1-c1ccccc1)NC1CCCCCC1 [Compound 9, N-Cycloheptyl-2-((4-oxo-3-phenyl-4,5-dihydro-3H-pyrimido[5,4-b]indol-2-yl)thio)acetamide]	99	high IP-10 production	the most active; also recorded: high IL-6	100	
O=C(CSc1nc2c([nH]c3ccccc32)c(=O)n1-c1ccccc1)NC1CCCCCCC1 [Compound 10, N-cyclooctyl-2-((4-oxo-3-phenyl-4,5-dihydro-3H-pyrimido[5,4-b]indol-2-yl)thio)acetamide]	95	high IP-10 production	the most active; also recorded: high IL-6	64	
O=C(CSc1nc2c([nH]c3ccccc32)c(=O)n1-c1ccccc1)NC1CCC1 [Compound 12, N-cyclobutyl-2-((4-oxo-3-phenyl-4,5-dihydro-3H-pyrimido[5,4-b]indol-2-yl)thio)acetamide]	18	nearly equivalent induction of IP-10	diminished IL-6 release	32	
CC(C)(C)CCNC(=O)CSc1nc2c([nH]c3ccccc32)c(=O)n1-c1ccccc1 [Compound 28, N-(3,3-dimethylbutyl)-2-((4-oxo-3-phenyl-4,5-dihydro-3H-pyrimido[5,4-b]indol-2-yl)thio)acetamide]	126	high IP-10 production	among the most active of the alkyls; also recorded: high IL-6	72	
CCC(C)CCNC(=O)CSc1nc2c([nH]c3ccccc32)c(=O)n1-c1ccccc1 (stereo not shown) [Compound 29, N-(3-methylpentyl)-2-((4-oxo-3-phenyl-4,5-dihydro-3H-pyrimido[5,4-b]indol-2-yl)thio)acetamide]	29	nearly equivalent induction of IP-10	diminished IL-6 release	17	
CCCC(C)NC(=O)CSc1nc2c([nH]c3ccccc32)c(=O)n1-c1ccccc1 (stereo not shown) [Compound 30, 2-((4-oxo-3-phenyl-4,5-dihydro-3H-pyrimido[5,4-b]indol-2-yl)thio)-N-(pentan-2-yl)acetamide]	17	nearly equivalent induction of IP-10	diminished IL-6 release	13	
O=C(CSc1nc2c([nH]c3ccccc32)c(=O)n1-c1ccccc1)NCC1CCCO1 (stereo not shown) [Compound 33, 2-((4-oxo-3-phenyl-4,5-dihydro-3H-pyrimido[5,4-b]indol-2-yl)thio)-N-((tetrahydrofuran-2-yl)methyl)acetamide]	21	nearly equivalent induction of IP-10	diminished IL-6 release	13	maximum tolerated dose relative to MPLA ([5]; liver injury model with galactosamine): over 100 times; IP-10 induction in LPS mutant (Trif lps/lps) cells [6]: significantly decreased; serum TNFα ([7]; […] post challenge, compared to vehicle treated mice): significantly lower level; mice survived ([7]; i.p. pretreatment 500 nmol, LPS/galactosamine challenge next day): 100%; Survival [7]: 11/11; IL-6 secretion in MyD88 null dendritic cells [8]: significantly impaired
O=C(CSc1nc2c([nH]c3ccccc32)c(=O)n1C1CCCCC1)NC1CCCC1 [Compound 41, 2-((3-Cyclohexyl-4-oxo-4,5-dihydro-3H-pyrimido[5,4-b]indol-2-yl)thio)-N-cyclopentylacetamide]	19		partial loss of activity	33	
CN(C(=O)CSc1nc2c3ccccc3n(C)c2c(=O)n1-c1ccccc1)C1CCCCC1 [Compound 43, N-cyclohexyl-N-methyl-2-((5-methyl-4-oxo-3-phenyl-4,5-dihydro-3H-pyrimido[5,4-b]indol-2-yl)thio)acetamide]	1		total loss of IL-6 activity	<1	
COC(=O)CCCn1c2ccccc2c2nc(SCC(=O)NC3CCCCC3)n(-c3ccccc3)c(=O)c21 [Compound 44, Methyl 4-(2-((2-(cyclohexylamino)-2-oxoethyl)thio)-4-oxo-3-phenyl-3H-pyrimido[5,4-b]indol-5(4H)-yl)butanoate]	9		very little IL-6	19	mouse TLR4 reporter cell activation (in words) [1]: good activity; human TLR4 reporter cell activation (in words) [4]: good activity
CCCn1c2ccccc2c2nc(SCC(=O)NC3CCCCC3)n(-c3ccccc3)c(=O)c21 [Compound 48, N-cyclohexyl-2-((4-oxo-3-phenyl-5-propyl-4,5-dihydro-3H-pyrimido[5,4-b]indol-2-yl)thio)acetamide]					cell viability (MTT) [9]: did not reduce cell viability
monophosphoryl lipid A [MPLA, reference compound]					Survival ([5]; i.p. 500 nmol Cmpd 42, MPL 40 μg or LPS 0.2 μg mixed with galactosamine 12 mg, survivors/treated): 0/5; Serum TNFα levels ([5]; with galactosamine 12 mg/animal, up to 15 μmol/animal Cmpd 33, 1 μmol/animal Cmpd 42, 10 μg/animal MPLA): induced detectable TNFα; Survival [7]: 8/9
